According to article PMC4621900, “Ebselen inhibits QSOX1 enzymatic activity and suppresses invasion of pancreatic and renal cancer cell lines” (Oncotarget, 2015):

Columns and labels:
glucose oxidase (GOx) = glucose oxidase (GOx) (Aspergillus niger, UniProt P13006); assay: luminescent (ROS-Glo) H2O2-detection enzyme assay, counter-screen; assay type: biochemical
[1] = target: T1, Quiescin sulfhydryl oxidase 1 (QSOX1) (Homo sapiens, UniProt O00391); assay: intact-protein LC-ESI-MS of covalent adducts and maleimide protection assay; IC50 from purified-enzyme luminescent H2O2 assay, confirmed by HVA fluorescence assay; assay type: biochemical
T1 construct: amino acids 33–546 of QSOX1-S, N-terminal poly-histidine tag (rQSOX1)
T1 sequence (O00391 33-546): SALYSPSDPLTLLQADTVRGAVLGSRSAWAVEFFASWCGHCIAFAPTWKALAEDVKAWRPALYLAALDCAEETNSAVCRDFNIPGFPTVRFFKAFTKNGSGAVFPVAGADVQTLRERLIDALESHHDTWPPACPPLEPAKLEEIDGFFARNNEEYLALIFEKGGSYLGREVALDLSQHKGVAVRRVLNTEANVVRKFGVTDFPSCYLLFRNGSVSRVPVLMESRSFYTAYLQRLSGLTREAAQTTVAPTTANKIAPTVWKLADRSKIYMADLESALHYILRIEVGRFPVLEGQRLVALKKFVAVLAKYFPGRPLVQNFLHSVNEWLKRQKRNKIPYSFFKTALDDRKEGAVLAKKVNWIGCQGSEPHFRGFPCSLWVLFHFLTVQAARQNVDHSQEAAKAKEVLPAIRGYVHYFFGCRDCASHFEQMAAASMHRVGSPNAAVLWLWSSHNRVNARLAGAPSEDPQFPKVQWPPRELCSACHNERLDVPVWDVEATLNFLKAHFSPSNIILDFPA

Sequence of glucose oxidase (GOx) (P13006 17-605): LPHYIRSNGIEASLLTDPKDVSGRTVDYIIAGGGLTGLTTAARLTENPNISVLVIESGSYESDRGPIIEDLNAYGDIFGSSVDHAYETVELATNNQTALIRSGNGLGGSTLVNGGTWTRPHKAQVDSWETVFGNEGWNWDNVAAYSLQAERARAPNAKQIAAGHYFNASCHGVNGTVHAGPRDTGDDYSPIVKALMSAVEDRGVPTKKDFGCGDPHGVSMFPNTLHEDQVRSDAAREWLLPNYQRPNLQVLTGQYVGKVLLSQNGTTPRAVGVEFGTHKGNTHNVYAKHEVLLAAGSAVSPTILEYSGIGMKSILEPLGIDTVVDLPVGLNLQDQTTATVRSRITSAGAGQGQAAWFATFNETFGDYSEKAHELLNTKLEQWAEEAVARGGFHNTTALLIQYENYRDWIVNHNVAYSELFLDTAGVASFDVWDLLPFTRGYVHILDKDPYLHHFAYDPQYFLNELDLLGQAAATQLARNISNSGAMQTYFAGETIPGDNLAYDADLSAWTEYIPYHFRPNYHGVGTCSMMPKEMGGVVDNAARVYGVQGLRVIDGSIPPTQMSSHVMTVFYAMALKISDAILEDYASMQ

O=c1c2ccccc2[se]n1-c1ccccc1 [ebselen, 2-phenyl-1,2-benzisoselenazol-3(2H)-one]
IC50 (glucose oxidase (GOx)): 20.5 µM | IC50 [1]: 5.4 µM
